PMC4710522, “A Novel Triazolopyridine-Based Spleen Tyrosine Kinase Inhibitor That Arrests Joint Inflammation” (PLoS ONE, 2016)
Several values for one entry are separate records, joined by “and”; a condition that tells them apart may be missing. Equal values may be shown once. Read-outs that look alike come from different tables or passages of the source.

How the values were obtained:
Assay in all cases: SelectScreen kinase assay
Type in all cases: biochemical
AMPK_A2_B1_G1_h = target: T1, AMPK_A2_B1_G1_h (Homo sapiens, UniProt P54646); conditions: KM ATP, read-out: % control
T1 construct: purchased Life Technologies (Invitrogen) SelectScreen, Z'-LYTE / Adapta
Summary of the method: (§1)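 A single 3 µM compound concentration was tested against each kinase in Z'-Lyte or Adapta assays, with ATP at KM, 10 or 100 µM as indicated, and activity normalised to DMSO-only wells.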

Abl_E255K_h = target: T2, Abl_E255K_h (Homo sapiens, UniProt P00519, E255K); conditions: KM ATP, read-out: % control
T2 construct: purchased Life Technologies (Invitrogen) SelectScreen, Z'-LYTE / Adapta
Summary of the method: as §1

Axl_h = target: T3, Axl_h (Homo sapiens, UniProt P30530); conditions: KM ATP, read-out: % control
T3 construct: purchased Life Technologies (Invitrogen) SelectScreen, Z'-LYTE / Adapta
Summary of the method: as §1

BTK_h = target: T4, BTK_h (Homo sapiens, UniProt Q06187); conditions: KM ATP, read-out: % control
T4 construct: purchased Life Technologies (Invitrogen) SelectScreen, Z'-LYTE / Adapta
Summary of the method: as §1

Bmx_h = target: T5, Bmx_h (Homo sapiens, UniProt P51813); conditions: KM ATP, read-out: % control
T5 construct: purchased Life Technologies (Invitrogen) SelectScreen, Z'-LYTE / Adapta
Summary of the method: as §1

CHK2_h = target: T6, CHK2_h (Homo sapiens, UniProt O96017); conditions: KM ATP, read-out: % control
T6 construct: purchased Life Technologies (Invitrogen) SelectScreen, Z'-LYTE / Adapta
Summary of the method: as §1

CK1-delta_h = target: T7, CK1-delta_h (Homo sapiens, UniProt P48730); conditions: KM ATP, read-out: % control
T7 construct: purchased Life Technologies (Invitrogen) SelectScreen, Z'-LYTE / Adapta
Summary of the method: as §1

CK1-gamma2_h = target: T8, CK1-gamma2_h (Homo sapiens, UniProt P78368); conditions: KM ATP, read-out: % control
T8 construct: purchased Life Technologies (Invitrogen) SelectScreen, Z'-LYTE / Adapta
Summary of the method: as §1

DYRK1B_h = target: T9, DYRK1B_h (Homo sapiens, UniProt Q9Y463); conditions: KM ATP, read-out: % control
T9 construct: purchased Life Technologies (Invitrogen) SelectScreen, Z'-LYTE / Adapta
Summary of the method: as §1

EGFR_T790M_h = target: T10, EGFR_T790M_h (Homo sapiens, UniProt P00533, T790M); conditions: KM ATP, read-out: % control
T10 construct: purchased Life Technologies (Invitrogen) SelectScreen, Z'-LYTE / Adapta
Summary of the method: as §1

EphA1_h = target: T11, EphA1_h (Homo sapiens, UniProt P21709); conditions: KM ATP, read-out: % control
T11 construct: purchased Life Technologies (Invitrogen) SelectScreen, Z'-LYTE / Adapta
Summary of the method: as §1

GSK3-beta_h = target: T12, GSK3-beta_h (Homo sapiens, UniProt P49841); conditions: KM ATP, read-out: % control
T12 construct: purchased Life Technologies (Invitrogen) SelectScreen, Z'-LYTE / Adapta
Summary of the method: as §1

IR_h = target: T13, IR_h (Homo sapiens, UniProt P06213); conditions: KM ATP, read-out: % control
T13 construct: purchased Life Technologies (Invitrogen) SelectScreen, Z'-LYTE / Adapta
Summary of the method: as §1

JAK1_h = JAK1_h (Homo sapiens, UniProt P23458)
Summary of the method: as §1

Khs_1 = target: T14, Khs_1 (Homo sapiens, UniProt Q9Y4K4); conditions: KM ATP, read-out: % control
T14 construct: purchased Life Technologies (Invitrogen) SelectScreen, Z'-LYTE / Adapta
Summary of the method: as §1

MARK2_h = target: T15, MARK2_h (Homo sapiens, UniProt Q7KZI7); conditions: KM ATP, read-out: % control
T15 construct: purchased Life Technologies (Invitrogen) SelectScreen, Z'-LYTE / Adapta
Summary of the method: as §1

MRCK-beta_h = target: T16, MRCK-beta_h (Homo sapiens, UniProt Q9Y5S2); conditions: KM ATP, read-out: % control
T16 construct: purchased Life Technologies (Invitrogen) SelectScreen, Z'-LYTE / Adapta
Summary of the method: as §1

MST2_h = target: T17, MST2_h (Homo sapiens, UniProt Q13188); conditions: KM ATP, read-out: % control
T17 construct: purchased Life Technologies (Invitrogen) SelectScreen, Z'-LYTE / Adapta
Summary of the method: as §1

PAK1_h = target: T18, PAK1_h (Homo sapiens, UniProt Q13153); conditions: KM ATP, read-out: % control
T18 construct: purchased Life Technologies (Invitrogen) SelectScreen, Z'-LYTE / Adapta
Summary of the method: as §1

PAK2_h = target: T19, PAK2_h (Homo sapiens, UniProt Q13177); conditions: KM ATP, read-out: % control
T19 construct: purchased Life Technologies (Invitrogen) SelectScreen, Z'-LYTE / Adapta
Summary of the method: as §1

PAK3_h = target: T20, PAK3_h (Homo sapiens, UniProt O75914); conditions: KM ATP, read-out: % control
T20 construct: purchased Life Technologies (Invitrogen) SelectScreen, Z'-LYTE / Adapta
Summary of the method: as §1

PDGFR-alpha_V561D_h = target: T21, PDGFR-alpha_V561D_h (Homo sapiens, UniProt P16234, V561D); conditions: KM ATP, read-out: % control
T21 construct: purchased Life Technologies (Invitrogen) SelectScreen, Z'-LYTE / Adapta
Summary of the method: as §1

PDK1_h = target: T22, PDK1_h (Homo sapiens, UniProt O15530); conditions: read-out: % control
T22 construct: purchased Life Technologies (Invitrogen) SelectScreen, Z'-LYTE / Adapta
Summary of the method: as §1

PKA_h = target: T23, PKA_h (Homo sapiens, UniProt P17612); conditions: KM ATP, read-out: % control
T23 construct: purchased Life Technologies (Invitrogen) SelectScreen, Z'-LYTE / Adapta
Summary of the method: as §1

PKB-gamma_h = target: T24, PKB-gamma_h (Homo sapiens, UniProt Q9Y243); conditions: KM ATP, read-out: % control
T24 construct: purchased Life Technologies (Invitrogen) SelectScreen, Z'-LYTE / Adapta
Summary of the method: as §1

PKC-theta_h = target: T25, PKC-theta_h (Homo sapiens, UniProt Q04759); conditions: KM ATP, read-out: % control
T25 construct: purchased Life Technologies (Invitrogen) SelectScreen, Z'-LYTE / Adapta
Summary of the method: as §1

PhK-gamma2_h = target: T26, PhK-gamma2_h (Homo sapiens, UniProt P15735); conditions: KM ATP, read-out: % control
T26 construct: purchased Life Technologies (Invitrogen) SelectScreen, Z'-LYTE / Adapta
Summary of the method: as §1

Rsk2_h = target: T27, Rsk2_h (Homo sapiens, UniProt P51812); conditions: KM ATP, read-out: % control
T27 construct: purchased Life Technologies (Invitrogen) SelectScreen, Z'-LYTE / Adapta
Summary of the method: as §1

SIK2_h = target: T28, SIK2_h (Homo sapiens, UniProt Q9H0K1); conditions: KM ATP, read-out: % control
T28 construct: purchased Life Technologies (Invitrogen) SelectScreen, Z'-LYTE / Adapta
Summary of the method: as §1

SRMS_h = target: T29, SRMS_h (Homo sapiens, UniProt Q9H3Y6); conditions: KM ATP, read-out: % control
T29 construct: purchased Life Technologies (Invitrogen) SelectScreen, Z'-LYTE / Adapta
Summary of the method: as §1

STK25_h = target: T30, STK25_h (Homo sapiens, UniProt O00506); conditions: KM ATP, read-out: % control
T30 construct: purchased Life Technologies (Invitrogen) SelectScreen, Z'-LYTE / Adapta
Summary of the method: as §1

TAO1_h = target: T31, TAO1_h (Homo sapiens, UniProt Q9UL54); conditions: KM ATP, read-out: % control
T31 construct: purchased Life Technologies (Invitrogen) SelectScreen, Z'-LYTE / Adapta
Summary of the method: as §1

TrkA_h = target: T32, TrkA_h (Homo sapiens, UniProt P04629); conditions: KM ATP, read-out: % control
T32 construct: purchased Life Technologies (Invitrogen) SelectScreen, Z'-LYTE / Adapta
Summary of the method: as §1

p38-alpha_h = target: T33, p38-alpha_h (Homo sapiens, UniProt Q16539); conditions: 100 µM ATP, read-out: % control
T33 construct: purchased Life Technologies (Invitrogen) SelectScreen, Z'-LYTE / Adapta
Summary of the method: as §1

Chain of JAK1_h (P23458 whole entry): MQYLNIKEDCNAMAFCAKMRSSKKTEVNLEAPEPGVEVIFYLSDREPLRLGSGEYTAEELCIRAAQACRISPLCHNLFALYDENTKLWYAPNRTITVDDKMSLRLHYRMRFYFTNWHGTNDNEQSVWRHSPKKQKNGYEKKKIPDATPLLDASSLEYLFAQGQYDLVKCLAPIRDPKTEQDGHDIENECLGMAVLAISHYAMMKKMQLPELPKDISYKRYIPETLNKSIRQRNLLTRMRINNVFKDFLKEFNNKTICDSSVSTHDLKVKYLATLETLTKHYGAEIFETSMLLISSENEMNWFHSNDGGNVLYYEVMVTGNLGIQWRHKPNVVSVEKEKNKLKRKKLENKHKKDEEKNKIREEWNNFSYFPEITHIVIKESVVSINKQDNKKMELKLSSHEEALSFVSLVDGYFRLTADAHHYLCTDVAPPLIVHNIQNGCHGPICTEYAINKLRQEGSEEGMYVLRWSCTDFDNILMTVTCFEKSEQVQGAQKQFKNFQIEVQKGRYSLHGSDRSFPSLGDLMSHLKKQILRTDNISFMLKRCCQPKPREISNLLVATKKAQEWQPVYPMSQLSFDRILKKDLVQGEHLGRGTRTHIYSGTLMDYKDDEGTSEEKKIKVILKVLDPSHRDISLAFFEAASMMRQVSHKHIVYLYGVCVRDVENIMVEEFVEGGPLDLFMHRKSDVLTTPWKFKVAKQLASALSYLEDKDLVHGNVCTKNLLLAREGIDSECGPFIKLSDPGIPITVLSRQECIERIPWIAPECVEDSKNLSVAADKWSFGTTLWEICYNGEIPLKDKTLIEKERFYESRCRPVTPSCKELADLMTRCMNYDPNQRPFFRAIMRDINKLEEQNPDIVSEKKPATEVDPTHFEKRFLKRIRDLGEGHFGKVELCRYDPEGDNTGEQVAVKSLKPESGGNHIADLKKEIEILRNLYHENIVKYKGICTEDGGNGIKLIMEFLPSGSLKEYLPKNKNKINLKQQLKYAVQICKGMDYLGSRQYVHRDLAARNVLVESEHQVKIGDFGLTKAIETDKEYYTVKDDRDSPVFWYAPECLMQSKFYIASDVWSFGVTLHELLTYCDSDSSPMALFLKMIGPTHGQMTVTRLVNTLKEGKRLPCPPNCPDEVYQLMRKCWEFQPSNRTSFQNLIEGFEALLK
T22 sequence (O15530 whole entry): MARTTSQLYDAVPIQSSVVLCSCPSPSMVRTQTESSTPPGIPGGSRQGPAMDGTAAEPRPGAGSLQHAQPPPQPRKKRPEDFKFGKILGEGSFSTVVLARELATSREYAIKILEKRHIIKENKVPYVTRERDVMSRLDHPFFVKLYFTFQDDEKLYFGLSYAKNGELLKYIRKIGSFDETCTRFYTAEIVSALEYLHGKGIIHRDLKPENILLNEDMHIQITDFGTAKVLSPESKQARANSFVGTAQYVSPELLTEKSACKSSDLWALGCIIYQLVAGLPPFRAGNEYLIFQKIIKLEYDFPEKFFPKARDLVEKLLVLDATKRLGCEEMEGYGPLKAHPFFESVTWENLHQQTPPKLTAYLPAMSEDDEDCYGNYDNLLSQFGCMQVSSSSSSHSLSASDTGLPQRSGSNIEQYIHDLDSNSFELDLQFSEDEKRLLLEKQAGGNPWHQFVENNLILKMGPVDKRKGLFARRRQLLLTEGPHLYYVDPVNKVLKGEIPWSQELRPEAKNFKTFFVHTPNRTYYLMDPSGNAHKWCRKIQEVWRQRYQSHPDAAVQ
T33 sequence (Q16539 whole entry): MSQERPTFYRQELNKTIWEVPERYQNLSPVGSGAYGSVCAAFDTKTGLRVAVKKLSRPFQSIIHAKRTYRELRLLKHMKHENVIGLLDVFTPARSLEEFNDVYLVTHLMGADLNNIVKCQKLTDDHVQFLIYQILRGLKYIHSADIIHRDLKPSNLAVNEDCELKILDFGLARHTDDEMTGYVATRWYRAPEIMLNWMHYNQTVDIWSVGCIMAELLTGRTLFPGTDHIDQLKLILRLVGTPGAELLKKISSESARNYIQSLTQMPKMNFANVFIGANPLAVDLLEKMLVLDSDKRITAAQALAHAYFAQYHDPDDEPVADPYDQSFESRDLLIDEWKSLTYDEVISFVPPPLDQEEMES
T10 sequence (P00533 25-1210 T790M): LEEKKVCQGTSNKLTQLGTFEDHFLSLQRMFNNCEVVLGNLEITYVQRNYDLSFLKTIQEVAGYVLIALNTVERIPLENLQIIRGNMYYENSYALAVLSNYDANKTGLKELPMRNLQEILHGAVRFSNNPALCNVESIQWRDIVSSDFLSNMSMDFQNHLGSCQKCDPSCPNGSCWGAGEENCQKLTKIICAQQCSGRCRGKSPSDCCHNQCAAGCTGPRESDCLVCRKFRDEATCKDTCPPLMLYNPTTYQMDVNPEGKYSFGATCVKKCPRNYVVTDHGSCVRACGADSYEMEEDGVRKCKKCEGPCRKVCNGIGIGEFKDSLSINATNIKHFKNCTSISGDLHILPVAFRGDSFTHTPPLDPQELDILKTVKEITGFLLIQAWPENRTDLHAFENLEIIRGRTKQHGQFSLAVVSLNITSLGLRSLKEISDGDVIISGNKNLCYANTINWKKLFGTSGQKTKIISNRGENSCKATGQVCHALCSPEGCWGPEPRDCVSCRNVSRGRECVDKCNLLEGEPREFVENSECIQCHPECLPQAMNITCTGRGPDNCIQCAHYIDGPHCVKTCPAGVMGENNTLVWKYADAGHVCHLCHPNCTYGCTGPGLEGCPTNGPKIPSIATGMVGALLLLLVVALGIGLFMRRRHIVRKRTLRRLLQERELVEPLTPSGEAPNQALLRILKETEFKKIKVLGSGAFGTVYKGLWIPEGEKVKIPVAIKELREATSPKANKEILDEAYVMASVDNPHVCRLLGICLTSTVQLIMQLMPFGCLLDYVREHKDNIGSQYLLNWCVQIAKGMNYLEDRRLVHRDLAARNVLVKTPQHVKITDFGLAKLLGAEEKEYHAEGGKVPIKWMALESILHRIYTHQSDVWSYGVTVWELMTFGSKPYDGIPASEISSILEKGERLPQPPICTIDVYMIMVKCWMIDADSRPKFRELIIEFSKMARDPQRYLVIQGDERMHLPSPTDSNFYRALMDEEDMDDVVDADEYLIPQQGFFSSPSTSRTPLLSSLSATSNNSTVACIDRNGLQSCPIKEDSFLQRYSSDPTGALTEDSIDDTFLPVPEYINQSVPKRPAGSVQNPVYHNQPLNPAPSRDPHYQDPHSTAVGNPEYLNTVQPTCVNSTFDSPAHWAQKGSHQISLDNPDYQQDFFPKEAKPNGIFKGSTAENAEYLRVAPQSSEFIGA
T29 sequence (Q9H3Y6 whole entry): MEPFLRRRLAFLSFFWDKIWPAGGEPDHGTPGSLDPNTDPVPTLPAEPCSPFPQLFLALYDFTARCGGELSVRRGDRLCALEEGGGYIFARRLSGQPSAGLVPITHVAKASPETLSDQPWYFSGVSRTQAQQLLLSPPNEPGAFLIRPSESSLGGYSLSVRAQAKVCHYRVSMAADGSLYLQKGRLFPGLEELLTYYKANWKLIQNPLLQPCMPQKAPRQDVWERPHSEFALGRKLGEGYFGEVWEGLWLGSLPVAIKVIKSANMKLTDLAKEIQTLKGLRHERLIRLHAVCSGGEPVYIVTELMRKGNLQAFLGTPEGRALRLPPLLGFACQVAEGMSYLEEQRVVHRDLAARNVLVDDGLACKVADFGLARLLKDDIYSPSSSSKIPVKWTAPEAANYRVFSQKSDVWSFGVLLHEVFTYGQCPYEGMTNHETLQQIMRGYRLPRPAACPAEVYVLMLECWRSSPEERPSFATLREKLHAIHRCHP
T20 sequence (O75914 whole entry): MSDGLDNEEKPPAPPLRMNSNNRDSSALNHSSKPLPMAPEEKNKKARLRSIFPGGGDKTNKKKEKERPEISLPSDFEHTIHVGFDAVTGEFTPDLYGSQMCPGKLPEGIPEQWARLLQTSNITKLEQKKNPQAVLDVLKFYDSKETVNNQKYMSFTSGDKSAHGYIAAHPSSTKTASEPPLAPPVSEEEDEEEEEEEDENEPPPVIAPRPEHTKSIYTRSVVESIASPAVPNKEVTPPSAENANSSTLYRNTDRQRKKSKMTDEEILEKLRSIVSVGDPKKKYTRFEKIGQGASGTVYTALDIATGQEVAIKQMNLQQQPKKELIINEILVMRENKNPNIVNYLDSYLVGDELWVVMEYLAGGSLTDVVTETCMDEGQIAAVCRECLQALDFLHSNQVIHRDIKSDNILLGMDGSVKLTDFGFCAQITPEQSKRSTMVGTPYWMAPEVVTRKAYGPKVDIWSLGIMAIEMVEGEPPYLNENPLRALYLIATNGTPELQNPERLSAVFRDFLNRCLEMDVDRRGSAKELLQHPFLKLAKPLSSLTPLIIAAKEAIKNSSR
T18 sequence (Q13153 whole entry): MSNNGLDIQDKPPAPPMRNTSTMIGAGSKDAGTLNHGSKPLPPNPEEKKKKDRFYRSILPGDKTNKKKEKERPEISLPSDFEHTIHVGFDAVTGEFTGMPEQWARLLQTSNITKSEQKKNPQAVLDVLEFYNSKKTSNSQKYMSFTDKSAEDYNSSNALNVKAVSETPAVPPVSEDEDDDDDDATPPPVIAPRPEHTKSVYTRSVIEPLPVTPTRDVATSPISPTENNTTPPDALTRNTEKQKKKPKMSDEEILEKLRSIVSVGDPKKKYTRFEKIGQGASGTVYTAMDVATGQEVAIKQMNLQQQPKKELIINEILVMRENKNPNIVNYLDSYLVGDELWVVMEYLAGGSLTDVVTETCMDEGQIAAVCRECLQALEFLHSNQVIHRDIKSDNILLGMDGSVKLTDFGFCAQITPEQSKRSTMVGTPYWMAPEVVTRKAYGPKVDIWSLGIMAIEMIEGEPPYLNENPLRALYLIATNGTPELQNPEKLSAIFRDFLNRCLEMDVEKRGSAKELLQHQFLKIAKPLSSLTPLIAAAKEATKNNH

## c1cc(CC2CCOCC2)n2nc(Nc3ccc4c(NC5CCOCC5)n[nH]c4c3)nc2c1 [CC-509, [3-(2H-3,4,5,6-tetrahydropyran-4-ylamino)(1H-indazol-6-yl)][5-(2H-3,4,5,6-tetrahydropyran-4-ylmethyl)(2H-1,2,4-triazolo[1,5-a]pyridin-2-yl)]amine]
AMPK_A2_B1_G1_h
  remaining activity at 3 µM: 63%
Abl_E255K_h
  remaining activity at 3 µM: 26%
Axl_h
  remaining activity at 3 µM: 70%
BTK_h
  remaining activity at 3 µM: 72%
Bmx_h
  remaining activity at 3 µM: 52%
CHK2_h
  remaining activity at 3 µM: 97%
CK1-delta_h
  remaining activity at 3 µM: 88%
CK1-gamma2_h
  remaining activity at 3 µM: 68%
DYRK1B_h
  remaining activity at 3 µM: 95%
EGFR_T790M_h
  remaining activity at 3 µM: 54%
EphA1_h
  remaining activity at 3 µM: 21%
GSK3-beta_h
  remaining activity at 3 µM: 88%
IR_h
  remaining activity at 3 µM: 91%
JAK1_h; 3 µM, KM ATP, read-out: % control
  remaining activity at 3 µM: 0%
JAK1_h; 10-point dose-response, commercial vendor
  IC50: 40 nM and 44 nM
Khs_1
  remaining activity at 3 µM: 81%
MARK2_h
  remaining activity at 3 µM: 55%
MRCK-beta_h
  remaining activity at 3 µM: 94%
MST2_h
  remaining activity at 3 µM: 46%
PAK1_h
  remaining activity at 3 µM: 94%
PAK2_h
  remaining activity at 3 µM: 85%
PAK3_h
  remaining activity at 3 µM: 97%
PDGFR-alpha_V561D_h
  remaining activity at 3 µM: 0%
PDK1_h; 100 µM ATP
  remaining activity at 3 µM: 78%
PDK1_h; KM ATP
  remaining activity at 3 µM: 47%
PKA_h
  remaining activity at 3 µM: 93%
PKB-gamma_h
  remaining activity at 3 µM: 99%
PKC-theta_h
  remaining activity at 3 µM: 78%
PhK-gamma2_h
  remaining activity at 3 µM: 103%
Rsk2_h
  remaining activity at 3 µM: 49%
SIK2_h
  remaining activity at 3 µM: 6%
SRMS_h
  remaining activity at 3 µM: 90%
STK25_h
  remaining activity at 3 µM: 97%
TAO1_h
  remaining activity at 3 µM: 96%
TrkA_h
  remaining activity at 3 µM: 41%
p38-alpha_h
  remaining activity at 3 µM: 89%
